Measured values: PubChem BioAssay AID248 (DTP/NCI, 2004)
Toxic doses and inconclusive results are not listed. Rule as the data show it: active = T/C of 150% or more; inactive = T/C below 125%.

System: L1210 leukemia ip in BDF1 mice, survival T/C
Experiment: NCI In Vivo Anticancer Drug Screen. Data for tumor model L1210 Leukemia (intraperitoneal) in B6D2F1 (BDF1) mice
Settings: endpoint: mean survival time, higher = longer survival
Outline: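 Survival endpoint. Drug-treated group vs vehicle group, expressed as T divided by C. Tumor passaged by transplantation.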

[1] = dose: 100.0 mg/kg/injection, schedule: Q01DX001 (ip), vehicle: carboxymethylcellulose (CMC)
[2] = dose: 200.0 mg/kg/injection, schedule: Q01DX001 (ip), vehicle: carboxymethylcellulose (CMC)
[3] = dose: 400.0 mg/kg/injection, schedule: Q01DX001 (ip), vehicle: carboxymethylcellulose (CMC)
[4] = dose: 100.0 mg/kg/injection, schedule: Q04DX003 (ip), vehicle: saline with Tween-80
[5] = dose: 200.0 mg/kg/injection, schedule: Q04DX003 (ip), vehicle: saline with Tween-80
[6] = dose: 400.0 mg/kg/injection, schedule: Q04DX003 (ip), vehicle: saline with Tween-80
[7] = dose: 100.0 mg/kg/injection, schedule: Q01DX009 (ip), vehicle: saline with Tween-80
[8] = dose: 100.0 mg/kg/injection, schedule: Q01DX001 (ip), vehicle: saline
[9] = dose: 200.0 mg/kg/injection, schedule: Q01DX001 (ip), vehicle: saline
[10] = dose: 400.0 mg/kg/injection, schedule: Q01DX001 (ip), vehicle: saline
[11] = dose: 50.0 mg/kg/injection, schedule: Q01DX001 (ip), vehicle: carboxymethylcellulose (CMC)
[12] = dose: 100.0 mg/kg/injection, schedule: Q04DX003 (ip), vehicle: Klucel (hydroxypropylcellulose) (HPC)
[13] = dose: 200.0 mg/kg/injection, schedule: Q04DX003 (ip), vehicle: Klucel (hydroxypropylcellulose) (HPC)
[14] = dose: 400.0 mg/kg/injection, schedule: Q04DX003 (ip), vehicle: Klucel (hydroxypropylcellulose) (HPC)

Measured: T/C

CC(=O)C1COC(O)C1C (stereo not drawn)
inactive: dose: 0.15 mg/kg/injection, schedule: Q01DX009 (ip), vehicle: saline 102 % of control | dose: 0.31 mg/kg/injection, schedule: Q01DX009 (ip), vehicle: saline 100 % of control | dose: 0.62 mg/kg/injection, schedule: Q01DX009 (ip), vehicle: saline 105 % of control | dose: 1.25 mg/kg/injection, schedule: Q01DX009 (ip), vehicle: saline 107 % of control | dose: 2.5 mg/kg/injection, schedule: Q01DX009 (ip), vehicle: saline 112 % of control | dose: 5.0 mg/kg/injection, schedule: Q01DX001 (ip), vehicle: saline 101 % of control | dose: 10.0 mg/kg/injection, schedule: Q01DX001 (ip), vehicle: saline 113 % of control

Nc1nc(C(=O)O)cc(=O)[nH]1
inactive: [1] 103 % of control | [2] 113 % of control | [3] 96 % of control

CCCCCCCCCCNC(=O)C[n+]1cccc(C(=O)Nc2ccc(Cl)cc2)c1
inactive: dose: 6.25 mg/kg/injection, schedule: Q01DX009 (ip), vehicle: acetone 97 % of control | dose: 12.5 mg/kg/injection, schedule: Q01DX009 (ip), vehicle: acetone 92 % of control | dose: 12.5 mg/kg/injection, schedule: Q04DX003 (ip), vehicle: saline 108 % of control | dose: 25.0 mg/kg/injection, schedule: Q04DX003 (ip), vehicle: saline 96 % of control

O=C1C=C(c2ccccc2)C(=O)C=C1c1ccccc1
inactive: dose: 6.25 mg/kg/injection, schedule: Q01DX009 (ip), vehicle: water 94 % of control | dose: 12.5 mg/kg/injection, schedule: Q01DX009 (ip), vehicle: water 86 % of control | dose: 25.0 mg/kg/injection, schedule: Q01DX009 (ip), vehicle: water 103 % of control | dose: 25.0 mg/kg/injection, schedule: Q04DX003 (ip), vehicle: gum acacia 94 % of control | dose: 50.0 mg/kg/injection, schedule: Q01DX009 (ip), vehicle: water 86 % of control | dose: 50.0 mg/kg/injection, schedule: Q04DX003 (ip), vehicle: gum acacia 94 % of control | dose: 100.0 mg/kg/injection, schedule: Q04DX003 (ip), vehicle: gum acacia 105 % of control

Nc1nc(=S)nc(N)[nH]1
inactive: dose: 25.0 mg/kg/injection, schedule: Q01DX009 (ip), vehicle: saline 101 % of control | dose: 50.0 mg/kg/injection, schedule: Q01DX009 (ip), vehicle: saline 103 % of control | dose: 100.0 mg/kg/injection, schedule: Q01DX009 (ip), vehicle: saline 97 % of control

CCCCC1=C(C)C(=O)OC1=O
inactive: [4] 95 % of control | [5] 95 % of control | [6] 103 % of control

COc1cc(Cc2nccc3cc(OC)c(OC)cc23)c(C(C)=O)c(OC)c1
inactive: dose: 5.0 mg/kg/injection, schedule: Q01DX009 (ip), vehicle: saline 113 % of control | dose: 10.0 mg/kg/injection, schedule: Q01DX009 (ip), vehicle: saline 118 % of control | dose: 20.0 mg/kg/injection, schedule: Q01DX009 (ip), vehicle: saline 109 % of control | dose: 40.0 mg/kg/injection, schedule: Q01DX009 (ip), vehicle: saline 99 % of control | dose: 80.0 mg/kg/injection, schedule: Q01DX009 (ip), vehicle: saline 95 % of control

Cc1noc2nc(Cl)cnc12
inactive: [7] 109 % of control | [4] 94 % of control | dose: 200.0 mg/kg/injection, schedule: Q01DX009 (ip), vehicle: saline with Tween-80 110 % of control | [5] 102 % of control | dose: 400.0 mg/kg/injection, schedule: Q01DX009 (ip), vehicle: saline with Tween-80 104 % of control | [6] 94 % of control

O=C1CCCC(=O)c2c(O)ccc(O)c21
inactive: [8] 96 % of control | [9] 98 % of control | [10] 96 % of control

Clc1ccc(-c2cc(=[N+]3CCCCC3)ss2)cc1
inactive: [7] 100 % of control | [4] 104 % of control | [5] 94 % of control

COC1=C(NC(C)(C)C)C(=O)C(OC)=C(NC(C)(C)C)C1=O
inactive: [11] 103 % of control | [1] 97 % of control | dose: 100.0 mg/kg/injection, schedule: Q01DX009 (ip), vehicle: Klucel (hydroxypropylcellulose) (HPC) 109 % of control | [12] 98 % of control | [2] 109 % of control | dose: 200.0 mg/kg/injection, schedule: Q01DX009 (ip), vehicle: Klucel (hydroxypropylcellulose) (HPC) 95 % of control | [13] 96 % of control | [3] 109 % of control | dose: 400.0 mg/kg/injection, schedule: Q01DX009 (ip), vehicle: Klucel (hydroxypropylcellulose) (HPC) 106 % of control | [14] 100 % of control

COC(C)(C)CN(CCCNC(=S)Nc1ccccc1)C(=S)Nc1ccccc1
inactive: [11] 103 % of control | [1] 97 % of control | [2] 86 % of control | [3] 93 % of control

Cc1cc2oc(=O)cc(C)c2c(=O)o1
inactive: [1] 97 % of control | [2] 92 % of control

CCOC(=O)c1cnc(N)nc1
inactive: [12] 97 % of control | [13] 101 % of control | [14] 98 % of control

CCP(CC)SC1OC(COC(C)=O)C(OC(C)=O)C(OC(C)=O)C1OC(C)=O (stereo not drawn)
inactive: dose: 50.0 mg/kg/injection, schedule: Q01DX001 (ip), vehicle: Klucel (hydroxypropylcellulose) (HPC) 102 % of control | dose: 100.0 mg/kg/injection, schedule: Q01DX001 (ip), vehicle: Klucel (hydroxypropylcellulose) (HPC) 101 % of control | dose: 200.0 mg/kg/injection, schedule: Q01DX001 (ip), vehicle: Klucel (hydroxypropylcellulose) (HPC) 98 % of control

O=C(Nc1ccc(Cl)c(Cl)c1)c1ccc(Cl)c(Cl)c1
inactive: dose: 50.0 mg/kg/injection, schedule: Q04DX002 (ip), vehicle: saline with Tween-80 94 % of control | dose: 100.0 mg/kg/injection, schedule: Q04DX002 (ip), vehicle: saline with Tween-80 91 % of control | dose: 200.0 mg/kg/injection, schedule: Q04DX002 (ip), vehicle: saline with Tween-80 91 % of control

CC(=O)CC(=O)C(F)(F)F.[O]=[U]=[O]
inactive: dose: 0.37 mg/kg/injection, schedule: Q01DX009 (ip), vehicle: gum acacia 99 % of control | dose: 0.75 mg/kg/injection, schedule: Q01DX009 (ip), vehicle: gum acacia 101 % of control | dose: 1.5 mg/kg/injection, schedule: Q01DX009 (ip), vehicle: gum acacia 101 % of control | dose: 6.25 mg/kg/injection, schedule: Q01DX005 (ip), vehicle: gum acacia 99 % of control | dose: 6.25 mg/kg/injection, schedule: Q01DX009 (ip), vehicle: gum acacia 98 % of control | dose: 12.5 mg/kg/injection, schedule: Q01DX005 (ip), vehicle: gum acacia 86 % of control | dose: 12.5 mg/kg/injection, schedule: Q04DX002 (ip), vehicle: gum acacia 104 % of control | dose: 25.0 mg/kg/injection, schedule: Q04DX002 (ip), vehicle: gum acacia 87 % of control

COc1cc2c(cc1OC)/C(=C\C#N)NCC2
inactive: [8] 98 % of control | [9] 98 % of control | [10] 100 % of control

Nc1ccc(-c2ccccc2)cc1Br
inactive: dose: 15.0 mg/kg/injection, schedule: Q01DX001 (ip), vehicle: carboxymethylcellulose (CMC) 101 % of control | dose: 30.0 mg/kg/injection, schedule: Q01DX001 (ip), vehicle: carboxymethylcellulose (CMC) 96 % of control

CC(C)(C)C1CCC2OC(C)(C(C)(C)C)CC(C(C)(C)C)C2C1 (stereo not drawn)
inactive: dose: 100.0 mg/kg/injection, schedule: Q01DX001 (ip), vehicle: saline with Tween-80 100 % of control | dose: 200.0 mg/kg/injection, schedule: Q01DX001 (ip), vehicle: saline with Tween-80 100 % of control | dose: 400.0 mg/kg/injection, schedule: Q01DX001 (ip), vehicle: saline with Tween-80 95 % of control

c1ccc2oc(N3CCN(c4nc5ccccc5o4)CC3)nc2c1
inactive: [1] 102 % of control | [2] 91 % of control | [3] 88 % of control

FC(F)=C(F)I
inactive: dose: 50.0 mg/kg/injection, schedule: Q01DX005 (ip), vehicle: other 102 % of control | dose: 100.0 mg/kg/injection, schedule: Q01DX005 (ip), vehicle: other 87 % of control | dose: 100.0 mg/kg/injection, schedule: Q04DX002 (ip), vehicle: other 98 % of control | dose: 200.0 mg/kg/injection, schedule: Q01DX005 (ip), vehicle: other 94 % of control | dose: 200.0 mg/kg/injection, schedule: Q04DX002 (ip), vehicle: other 104 % of control
